Assay results as given in ChEMBL document CHEMBL5728723, “Pyrimidine compounds and pyrimido indole compounds and methods of use” (2021).

How the values were obtained:
[1] = biological target: Vascular endothelial growth factor receptor 2 (Homo sapiens, UniProt P35968); assay: (§1) Kinase Inhibition Assay: Table 9: Compounds 1 and 2, Section D., (see FIG. 4, bottom row, far right column) each inhibit VEGFR-2 and PDGFR-β for antiangiogenic effects and also inhibit human TS (hTS) for cytotoxic effects in single agents.12 The inhibitory potency of both these single agents against VEGFR-2, PDGFR-β, and hTS was better than or close to standards (Tables 9, 10).
[2] = biological target: Vascular endothelial growth factor receptor 1 (Homo sapiens, UniProt P17948); assay: as §1
[3] = biological target: Epidermal growth factor receptor (Homo sapiens, UniProt P00533); assay: as §1
[4] = biological target: Platelet-derived growth factor receptor beta (Homo sapiens, UniProt P09619); assay: as §1
Chain of Platelet-derived growth factor receptor beta (P09619 whole entry): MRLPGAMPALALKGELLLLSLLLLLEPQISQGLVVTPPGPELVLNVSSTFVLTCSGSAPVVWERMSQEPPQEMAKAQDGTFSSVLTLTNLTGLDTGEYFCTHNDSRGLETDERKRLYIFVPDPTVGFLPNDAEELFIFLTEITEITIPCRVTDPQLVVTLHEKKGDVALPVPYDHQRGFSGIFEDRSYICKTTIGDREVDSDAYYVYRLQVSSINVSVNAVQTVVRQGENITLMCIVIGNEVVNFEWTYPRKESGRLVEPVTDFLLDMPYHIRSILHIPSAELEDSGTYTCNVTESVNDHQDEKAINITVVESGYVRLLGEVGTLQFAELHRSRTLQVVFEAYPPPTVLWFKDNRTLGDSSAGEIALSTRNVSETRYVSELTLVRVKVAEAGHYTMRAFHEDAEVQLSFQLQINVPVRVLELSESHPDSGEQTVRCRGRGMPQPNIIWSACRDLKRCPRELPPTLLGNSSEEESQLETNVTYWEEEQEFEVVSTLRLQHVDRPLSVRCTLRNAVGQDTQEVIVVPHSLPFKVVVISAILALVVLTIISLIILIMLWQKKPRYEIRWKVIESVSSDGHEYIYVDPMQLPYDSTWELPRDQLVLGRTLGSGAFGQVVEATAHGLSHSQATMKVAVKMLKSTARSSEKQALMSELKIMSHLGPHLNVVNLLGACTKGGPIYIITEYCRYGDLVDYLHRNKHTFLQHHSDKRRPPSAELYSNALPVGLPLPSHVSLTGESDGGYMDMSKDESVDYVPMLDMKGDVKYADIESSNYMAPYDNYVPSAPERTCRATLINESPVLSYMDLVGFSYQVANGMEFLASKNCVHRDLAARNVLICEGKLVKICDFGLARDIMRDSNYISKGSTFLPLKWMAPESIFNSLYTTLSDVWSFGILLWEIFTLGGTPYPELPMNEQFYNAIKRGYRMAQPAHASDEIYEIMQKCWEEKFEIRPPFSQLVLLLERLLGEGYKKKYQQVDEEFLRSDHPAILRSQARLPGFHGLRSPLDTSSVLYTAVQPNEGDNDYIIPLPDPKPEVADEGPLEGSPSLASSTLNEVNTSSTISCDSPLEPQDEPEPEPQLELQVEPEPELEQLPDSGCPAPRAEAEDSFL

Chain of Vascular endothelial growth factor receptor 2 (P35968 whole entry): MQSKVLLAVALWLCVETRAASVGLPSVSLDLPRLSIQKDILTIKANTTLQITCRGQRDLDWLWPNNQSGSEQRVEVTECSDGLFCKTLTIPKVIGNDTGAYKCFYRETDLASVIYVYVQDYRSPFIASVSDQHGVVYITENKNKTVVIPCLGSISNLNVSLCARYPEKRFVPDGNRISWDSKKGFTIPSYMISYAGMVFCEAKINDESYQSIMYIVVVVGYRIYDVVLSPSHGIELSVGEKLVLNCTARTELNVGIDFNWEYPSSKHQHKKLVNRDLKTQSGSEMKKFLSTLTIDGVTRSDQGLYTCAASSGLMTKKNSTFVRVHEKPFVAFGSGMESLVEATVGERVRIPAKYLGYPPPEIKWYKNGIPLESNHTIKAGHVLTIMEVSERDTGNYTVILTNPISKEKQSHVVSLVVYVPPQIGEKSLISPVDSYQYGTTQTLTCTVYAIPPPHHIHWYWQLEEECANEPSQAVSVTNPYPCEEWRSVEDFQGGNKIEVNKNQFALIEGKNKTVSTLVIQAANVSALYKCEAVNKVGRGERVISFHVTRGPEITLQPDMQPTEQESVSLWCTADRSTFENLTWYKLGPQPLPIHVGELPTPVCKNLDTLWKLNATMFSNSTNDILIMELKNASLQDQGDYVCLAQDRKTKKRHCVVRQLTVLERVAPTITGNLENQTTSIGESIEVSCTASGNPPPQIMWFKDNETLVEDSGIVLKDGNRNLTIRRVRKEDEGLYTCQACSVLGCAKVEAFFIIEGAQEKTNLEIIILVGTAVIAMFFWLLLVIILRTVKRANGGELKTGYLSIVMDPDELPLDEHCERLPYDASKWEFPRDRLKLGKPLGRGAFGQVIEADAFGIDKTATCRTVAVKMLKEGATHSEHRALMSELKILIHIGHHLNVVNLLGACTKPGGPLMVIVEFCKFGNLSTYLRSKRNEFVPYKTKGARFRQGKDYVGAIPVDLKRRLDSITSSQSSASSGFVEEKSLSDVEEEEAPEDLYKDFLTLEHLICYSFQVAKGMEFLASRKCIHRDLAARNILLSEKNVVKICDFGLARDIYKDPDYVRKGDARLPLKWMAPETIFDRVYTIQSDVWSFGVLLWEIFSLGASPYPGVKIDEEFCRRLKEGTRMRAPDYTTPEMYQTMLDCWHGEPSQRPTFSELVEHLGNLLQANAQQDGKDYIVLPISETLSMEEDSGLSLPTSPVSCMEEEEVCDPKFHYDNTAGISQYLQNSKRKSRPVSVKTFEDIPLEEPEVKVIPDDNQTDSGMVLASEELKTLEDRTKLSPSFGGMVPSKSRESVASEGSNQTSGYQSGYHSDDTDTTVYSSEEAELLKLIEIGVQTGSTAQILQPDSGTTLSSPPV
Chain of Vascular endothelial growth factor receptor 1 (P17948 whole entry): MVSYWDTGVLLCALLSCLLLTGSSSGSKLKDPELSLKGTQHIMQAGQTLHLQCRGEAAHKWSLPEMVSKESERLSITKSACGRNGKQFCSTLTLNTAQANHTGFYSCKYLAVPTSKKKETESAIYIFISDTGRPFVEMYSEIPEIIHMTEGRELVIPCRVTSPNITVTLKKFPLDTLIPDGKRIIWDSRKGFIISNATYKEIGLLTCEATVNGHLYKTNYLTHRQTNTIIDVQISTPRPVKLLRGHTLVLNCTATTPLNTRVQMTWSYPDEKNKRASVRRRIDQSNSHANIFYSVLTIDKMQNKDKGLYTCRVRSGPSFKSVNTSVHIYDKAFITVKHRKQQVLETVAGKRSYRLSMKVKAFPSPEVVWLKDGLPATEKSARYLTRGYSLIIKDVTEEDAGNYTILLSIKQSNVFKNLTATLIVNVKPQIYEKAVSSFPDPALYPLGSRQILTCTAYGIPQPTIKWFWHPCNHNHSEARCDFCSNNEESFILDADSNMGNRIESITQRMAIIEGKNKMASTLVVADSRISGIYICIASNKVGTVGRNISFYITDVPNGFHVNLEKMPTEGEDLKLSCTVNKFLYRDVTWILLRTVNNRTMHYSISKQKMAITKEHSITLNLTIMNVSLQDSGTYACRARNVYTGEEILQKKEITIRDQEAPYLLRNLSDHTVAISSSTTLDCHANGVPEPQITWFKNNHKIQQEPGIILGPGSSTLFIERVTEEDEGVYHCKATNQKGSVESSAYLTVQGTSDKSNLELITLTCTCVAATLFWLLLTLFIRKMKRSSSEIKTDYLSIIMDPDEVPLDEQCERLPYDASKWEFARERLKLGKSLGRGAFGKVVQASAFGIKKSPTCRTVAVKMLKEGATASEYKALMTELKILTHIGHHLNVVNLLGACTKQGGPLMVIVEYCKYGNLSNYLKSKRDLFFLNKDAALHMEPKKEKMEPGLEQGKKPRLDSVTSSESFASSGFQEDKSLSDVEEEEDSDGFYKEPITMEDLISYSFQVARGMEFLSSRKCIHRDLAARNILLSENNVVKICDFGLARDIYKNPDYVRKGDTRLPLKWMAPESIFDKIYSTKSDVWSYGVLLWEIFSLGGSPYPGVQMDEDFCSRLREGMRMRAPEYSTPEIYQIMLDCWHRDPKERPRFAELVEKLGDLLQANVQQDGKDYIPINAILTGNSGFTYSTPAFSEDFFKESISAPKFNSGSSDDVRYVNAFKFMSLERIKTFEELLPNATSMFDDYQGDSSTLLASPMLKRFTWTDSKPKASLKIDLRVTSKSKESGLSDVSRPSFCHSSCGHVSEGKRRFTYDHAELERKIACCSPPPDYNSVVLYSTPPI
Chain of Epidermal growth factor receptor (P00533 whole entry): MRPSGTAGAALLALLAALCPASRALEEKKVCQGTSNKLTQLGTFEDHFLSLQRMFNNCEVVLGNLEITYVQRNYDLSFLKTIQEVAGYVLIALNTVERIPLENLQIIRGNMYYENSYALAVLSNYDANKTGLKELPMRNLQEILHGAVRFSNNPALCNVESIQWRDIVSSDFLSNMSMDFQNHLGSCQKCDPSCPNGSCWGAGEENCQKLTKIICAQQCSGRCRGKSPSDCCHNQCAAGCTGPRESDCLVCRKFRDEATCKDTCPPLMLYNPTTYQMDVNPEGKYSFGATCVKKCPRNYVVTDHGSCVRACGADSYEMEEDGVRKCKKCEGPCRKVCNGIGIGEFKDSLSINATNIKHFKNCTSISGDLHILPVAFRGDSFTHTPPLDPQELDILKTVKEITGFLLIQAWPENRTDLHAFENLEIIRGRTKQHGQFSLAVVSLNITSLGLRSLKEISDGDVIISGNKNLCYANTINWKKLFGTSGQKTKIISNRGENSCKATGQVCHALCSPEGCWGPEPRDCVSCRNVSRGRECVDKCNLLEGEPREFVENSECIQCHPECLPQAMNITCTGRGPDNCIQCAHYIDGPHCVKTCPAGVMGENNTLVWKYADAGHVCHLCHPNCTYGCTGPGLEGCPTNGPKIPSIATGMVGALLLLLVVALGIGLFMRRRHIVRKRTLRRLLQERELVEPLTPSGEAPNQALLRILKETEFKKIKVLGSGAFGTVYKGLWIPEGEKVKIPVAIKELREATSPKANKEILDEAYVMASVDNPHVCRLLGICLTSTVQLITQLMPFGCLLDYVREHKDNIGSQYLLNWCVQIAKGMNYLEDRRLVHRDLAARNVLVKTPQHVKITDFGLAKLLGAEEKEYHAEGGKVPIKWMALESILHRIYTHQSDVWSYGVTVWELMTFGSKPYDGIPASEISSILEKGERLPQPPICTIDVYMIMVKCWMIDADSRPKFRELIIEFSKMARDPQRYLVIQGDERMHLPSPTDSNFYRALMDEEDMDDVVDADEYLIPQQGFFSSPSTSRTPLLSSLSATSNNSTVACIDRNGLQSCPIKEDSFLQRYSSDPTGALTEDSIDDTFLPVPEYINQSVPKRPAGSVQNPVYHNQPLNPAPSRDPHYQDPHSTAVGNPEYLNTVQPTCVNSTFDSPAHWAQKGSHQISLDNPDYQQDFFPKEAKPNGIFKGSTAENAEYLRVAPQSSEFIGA

SMILES	IC50 [1] [µM]	IC50 [2] [µM]	IC50 [3] [µM]	IC50 [4] [µM]
COc1cccc(Sc2sc3nc(N)nc(N)c3c2C)c1	56.3	160	10.4	40.3
COc1ccc(Sc2sc3nc(N)nc(N)c3c2C)cc1OC	22.6	118	–	2.8
